This is an account of results in ChEMBL document CHEMBL1201862, “PubChem BioAssay data set” (2004).

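A five-concentration, 48-hour dose response in 96-well plates underlies each endpoint, interpolated linearly between surrounding concentrations. GI50 marks 50% less growth.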 Active and inactive are the calls of the source. Cut-off read from the data, not from the text of the source: active = GI50 up to about 1.1 µM and inactive = higher. Some results are limits rather than exact numbers.

Among the test systems are EKVX; RXF 393; NCI-H23; RPMI-8226; Malme-3M; PC-3; NCI-H460; UACC-62; SK-MEL-5; SK-MEL-2; CCRF-CEM; SNB-75; ACHN; SK-OV-3; Hs-578T; MDA-MB-435; SF-539.
What all share (experiment): NCI-60 cell line screen, 48 h

Turning to `C[C@@H](CC(O)C(O)C(C)(C)O)C1CCC23CC12CCC1[C@@]2(C)CCC(=O)C(C)(C)C2CC(OC2OC(CO)C(O)C(O)C2O)[C@]13C` (stereo partly drawn), the GI50 in the test with EKVX, in the test on RXF 393, in the test on NCI-H23, with RPMI-8226, with Malme-3M and with PC-3 was > 10 µM (inactive) each time. Also, the GI50 with NCI-H460, in the test with UACC-62, in the test on SK-MEL-5, in the test with SK-MEL-2, with CCRF-CEM and with SNB-75 was > 10 µM (inactive) in each case. Also, the GI50 in the test on ACHN, with SK-OV-3, in the test on Hs-578T, in the test on MDA-MB-435 and in the test with SF-539 was > 10 µM (inactive) throughout.

In the case of `Cn1c(=O)c2nc(CS(=O)(=O)Cc3nc4c(=O)n(C)c(=O)n(C)c4[nH]3)[nH]c2n(C)c1=O`, the GI50 in the test on EKVX, with RXF 393, in the test on NCI-H23, in the test on RPMI-8226, in the test with Malme-3M and in the test on PC-3 was > 100 µM (inactive) in each case. Further, the GI50 with NCI-H460, with UACC-62, in the test with SK-MEL-5, with SK-MEL-2, with CCRF-CEM and with SNB-75 was > 100 µM (inactive) each time. Besides, the GI50 with ACHN, in the test with SK-OV-3, with Hs-578T, in the test with MDA-MB-435 and in the test with SF-539 was > 100 µM (inactive) each time.

Take `O=C(ON=C1c2ccccc2C(Br)C(Br)c2ccccc21)c1cc([N+](=O)[O-])cc([N+](=O)[O-])c1` (stereo not drawn): the GI50 with EKVX is 25.4 µM (inactive); with RXF 393, 19.6 µM (inactive); in the test with NCI-H23, 20.3 µM (inactive); in the test on RPMI-8226, 6.81 µM (inactive); in the test on Malme-3M, 18.5 µM (inactive); with PC-3 it was 28.5 µM (inactive). For the same compound, the GI50 in the test on NCI-H460 is 19.2 µM (inactive); with UACC-62, 18.7 µM (inactive); with SK-MEL-5, 16.6 µM (inactive); with SK-MEL-2, 31.6 µM (inactive); in the test on CCRF-CEM, 0.787 µM (active); in the test on SNB-75, 13.9 µM (inactive). Further, the GI50 with ACHN is 21.3 µM (inactive); with SK-OV-3, 27.1 µM (inactive); with Hs-578T it was 23 µM (inactive); with MDA-MB-435, 18.5 µM (inactive); in the test with SF-539, 18 µM (inactive).

Consider `CN(N)C(=O)NCCCl`, for which the GI50 with EKVX, with RXF 393, in the test on NCI-H23, in the test on RPMI-8226, in the test with Malme-3M and in the test with PC-3 was > 100 µM (inactive) throughout. Moreover, the GI50 in the test on NCI-H460, in the test on UACC-62, in the test with SK-MEL-5, in the test on SK-MEL-2, in the test on CCRF-CEM and in the test on SNB-75 was > 100 µM (inactive) throughout. Further, the GI50 with ACHN, in the test with SK-OV-3, with Hs-578T, in the test with MDA-MB-435 and in the test on SF-539 was > 100 µM (inactive) each time.
